Assay results as given in patent US12691124B2, “Methods of controlling and improving brain health” (ICAHN SCHOOL OF MEDICINE AT MOUNT SINAI, priority 2019, dated 2026).
Entries after “also recorded” stand apart in the source; their conditions may differ.

Legend:
primary cortical neurons = experiment: Aβ1-43 oligomer induced neuronal death; type: cell-based, mouse; settings: Aβ1-43 oligomers, 1 week pretreatment
From the text: While glutamate toxicity is a widely used and clinically relevant assay, there are other factors that contribute to neuronal death in vivo such as lack of oxygen which occurs after stroke or protein aggregates which are observed in many neurodegenerative disorders. To understand if the observed protective effect is specific to glutamate toxicity, neurons were exposed to either hypoxic (1% O2) environments or Aβ1-43 oligomers (FIGS. 10E and 10F).
IBET treatment protects neurons from neurotoxin-induced cell death (FIGS. 22C-22E). Dot plots show the percentage of cells that are propidium iodide negative after different neurotoxic insults when pre-treated with either control or iBET for 1 week. 6 hours and 24 hours after 1 mM glutamate exposure are shown in FIG. 22C; 18 hours, 24 hours, and 48 hours of hypoxia (1% O2) are shown in FIG. 22D; and 48 hours and 72 hours of Aβ1-43 oligomer exposure (10 μM) are shown in FIG. 22E. Two-way repeated measures ANOVA with multiple comparisons, n=3 per group, ***p<0.001. Experiments were repeated a minimum of three times.

CK-p25 mice = experiment: p25 (CK-p25) mouse model of Alzheimer's disease; type: in vivo; settings: 30 mg/kg i.p. daily
Procedure: Cdk^5tetO/+; Camk^2atTa/+ model of Alzheimer's disease uses the Camk2a promoter-driven tetracycline-controlled transactivator system (tTA) to overexpress human p25 fused to GFP in forebrain projection neurons after the removal of doxycycline from the diet. To avoid potential developmental effects of p25 expression, all mice were conceived and raised in the presence of doxycycline until 6-8 weeks of age.
Immunostaining. Mice were anesthetized with ketamine (120 mg/kg) and xylazine (24 mg/kg) and perfused transcardially with 10 ml PBS and 40 ml 4% paraformaldehyde (Electron Microscopy Sciences). Fixed brains were removed and dehydrated in 5%, 15% and 30% sucrose in PBS. Following dehydration, brains were frozen in Neg-50 (Thermo Scientific) on dry ice and stored at −80° C. until further processing. Brains were cut using a cryostat and 25-μm sections were mounted on Superfrost Plus microscope slides (Fisher Scientific). Slides were stored at −80° C. until staining. Slides were washed with PBS, permeabilized with PBS+0.2% Triton X-100 (PBST) and blocked with 2% normal goat serum in PBST for one hour at room temperature. Slides were incubated with primary antibodies (IBA1, 1:500, 019-19741, Waco; NeuN) in 2% normal goat serum in PBST overnight at 4° C. Slides were washed in PBST and incubated in Alexa Fluor-conjugated secondary antibodies (Alexa Fluor 488-, 546-, and 568- and 647-labeled goat anti-mouse, goat anti-rat, goat anti-chicken, goat anti-rabbit or donkey anti-goat IgGs (H+L); 1:500, Thermo Scientific) in 2% normal goat serum in PBST for 1 h at RT. Slides were washed and cover-slipped using Prolong Gold anti-fade with DAPI (Invitrogen) and dried overnight. Imaging was performed using a Zeiss LSM 780 Confocal Microscope (Zeiss, Oberkochen, DE). For z-stack images, 20-μm z-stack confocal images were acquired at 2-μm intervals, with 40×/1.3 oil objective at 0.6 or 1× zoom. For single plane images, 4.6 μm images were acquired at 20×/0.8 or 40×/1.3 objectives 0.6 or 1× zoom. Image processing was performed using Zen 2011 software (Zeiss).
Immunoblotting. Mice were anesthetized with CO2 followed by decapitation, and the region of interest was rapidly dissected and frozen in liquid nitrogen and stored at −80° C. until further processing. Samples were sonicated at 4° C. in 1% SDS solution supplemented with protease, Trichostatin A (500 ng/ml) and PhosStop phosphatase inhibitor (Roche, Switzerland), and boiled for ten minutes. The protein concentration was determined using a BCA protein assay kit (ThermoFisherScientific, USA) according to the manufacturer's instructions. Protein samples were diluted in equal volume of 2×LDS sample buffer (Invitrogen) and supplemented with DTT to a final concentration of 200 mM (Sigma).
Therefore to test the therapeutic effect of IBET858, p25 was overexpressed for two weeks in adult mice to initiate microgliosis and gene expression deficits before administration of daily IBET858 (30 mg/kg, i.p.) treatment for five weeks (FIG. 6A).
Gene expression levels for Casp3 are unaffected by 5 week IBET858 treatment in vivo. n=3, unpaired two-tailed t-test. […] To generate the p25 neurodegenerative mouse model, tetOCDK5R1/GFP were bred to CamK2a-tTA mice (“CK-p25”). Transgene overexpression was induced at 6 weeks of age by removing doxycycline from the diet. After two weeks, mice were daily injected with IBET858 (30 mg/kg, i.p.) or vehicle (FIG. 24C). Gene expression and protein levels of GFP reflecting transgene expression are unchanged.

C57bl/6 mice = experiment: Brain gene expression in IBET858 treated mice; type: in vivo, mouse
Procedure: In vivo I-BET858 treatment. IBET858 was developed and validated by GlaxoSmithKline. I-BET858 solutions used for in vivo studies (3 mg/ml) were prepared in 10% Kleptose buffer with 5% DMSO (pH 6.5) and maintained at 4° C. I-BET858 was made fresh daily, buffers were made fresh each week. 30 mg/kg I-BET858 or vehicle (Kleptose buffer pH=6.5) was delivered by i.p injection. For acute treatment, 6-week-old mice received a single I-BET858 injection. […] Gene expression and behavioral changes were assessed in 6 weeks old mice at 4 h (acute, n=8-10 for behavior, n=2 for gene expression analysis) or 12 h (chronic, n=10 for behavior, n=2 for gene expression analysis) after the (last) I-BET858 injection, respectively.
RNA Isolation. For in vitro gene expression analysis, neuronal culture plates were washed once with PBS, and TRIzol was added directly to cultures to isolate RNA (n=3 per group). For in vivo gene expression analysis, mice were anesthetized with CO2 and decapitated. The striata from two control and acute or chronic I-BET treated mice were rapidly dissected on ice and frozen in liquid nitrogen. RNA extraction from frozen samples was performed using TRIzol/Chloroform according to manufacturer's instructions (Invitrogen Corporation, Carlsbad, CA). RNA was precipitated overnight at −80° C. in isopropanol with 0.15 M sodium acetate, washed twice with 70% ethanol, air-dried, and resuspended in RNase-free water. RNA samples were purified using Rneasy Micro columns (Qiagen) with on-column DNAse treatment as specified by manufacturer. RNA integrity was assayed using nanodrop and RNA Pico chip on Bioanalyzer 2100 (Agilent, Santa Clara, CA) for quality RIN>9.
IBET treatment induces neuroprotective gene expression changes in the hippocampus of mice in vivo (FIG. 23A).

[1] = IBET858 treated mice compared to vehicle

For `CC(=O)N1c2ccc(-c3ccc(CN4CCCCC4)cc3)cc2[C@H](Nc2ccccc2)CC1C` (stereo in doubt) [IBET858], the “loss of neurons due to toxic Aβ oligomers” value (primary cortical neurons) was “significantly prevents loss of neurons”, the “hippocampal inflammatory genes induced by P25 overexpression” value (CK-p25 mice; five weeks) was “suppressed” and the “contextual and cued recall (freezing behavior)” value (CK-p25 mice; five weeks, fear conditioning) was “indistinguishable from controls”. The “hippocampal Psd95 protein level compared to wild type controls” value (CK-p25 mice; five weeks, untreated P25 42+/−10.7%) was 106+/−11.9%, the “hippocampal NeuN protein level compared to wild type controls” value (CK-p25 mice; five weeks, untreated P25 49+/−9.3%) was 105+/−9.8% and the “brain atrophy (loss)” value (CK-p25 mice; five weeks, untreated p25 27%) was 17%. For the same compound, the “number of microglia in the hippocampus” value (CK-p25 mice; five weeks, untreated p25 713.9+/−106) was 332.9+/−12.6 Iba1+ cells per mm^2, the “neuronal density in the dentate gyrus” value (CK-p25 mice; five weeks, untreated p25 2254+/−223.8) was 7880+/−587 NeuN+ cells per mm2 and the “expression of the p25 transgene” value (CK-p25 mice; western blot / GFP) was “does not affect; also recorded: unchanged”. For the same compound, the “genes induced by P25 overexpression that are significantly suppressed” value (CK-p25 mice; hippocampus) was 365 genes, the “genes suppressed by P25 overexpression that are significantly induced” value (CK-p25 mice; hippocampus) was 373 genes and the “Casp3 gene expression levels” value (C57bl/6 mice; 5 week IBET858 treatment in vivo) was “unaffected”. The “autophagy and proteostasis genes” value (C57bl/6 mice; [1]) was “increased” and the “genes involved in metabolic pathways” value (C57bl/6 mice; [1]) was “downregulated”.
